The text below walks through data of patent publication US11021470B2, “2-substituted quinazoline compounds comprising a substituted heterocyclic group and methods of use thereof” (Araxes Pharma LLC, priority 2015, dated 2021).

Structures are written as SMILES.

For one assay, the target named is T1, KRAS G12C 1-169, his-tagged protein, GDP-loaded (Homo sapiens, UniProt P01116, G12C).
T1 construct: KRAS G12C 1-169, his-tagged protein, GDP-loaded
Put plainly: KRAS G12C covalent binding (% modification) by mass spectrometry, ten or three minute incubation. The conditions noted are these: covalent binding to KRAS G12C after a ten minute incubation period. Here is the method:
Test compounds were prepared as 10 mM stock solutions in DMSO (Fisher cat #BP-231-100). KRAS G12C 1-169, his-tagged protein, GDP-loaded was diluted to […] in buffer (20 mM Hepes, 150 mM NaCl, 1 mM MgCl2). Compounds were tested for activity as follows:
Compounds were diluted to 50× final test concentration in DMSO in 96-well storage plates. Compound stock solutions were vortexed before use and observed carefully for any sign of precipitation. Dilutions were as follow: • For 100 μM final compound concentration, compounds were diluted to 5000 μM (5 μl 10 mM compound stock+5 μl DMSO and mixed well by pipetting. • For 30 μM final compound concentration, compounds were diluted to 1500 μM (3 μl 10 mM compound stock+17 μl DMSO) and mixed well by pipetting. • For 10 μM final compound concentration, compounds were diluted to 500 μM (2 μl 10 mM compound stock+38 μl DMSO) and mixed well by pipetting. 49 μl of the stock protein solution was added to each well of a 96-well PCR plate (Fisher cat #1423027). 1 μl of the diluted 50× compounds were added to appropriate wells in the PCR plate using 12-channel pipettor. Reactions were mixed carefully and thoroughly by pipetting up/down with a 200 μl multi-channel pipettor. […] 5 μl of 2% formic acid (Fisher cat #A117) in DI H2O was then added to each well followed by mixing with a pipette. The plate was then resealed with aluminum seal and stored on dry ice until analyzed as described below.
The above described assays were analyzed by mass spectrometry according to one of the following two procedures:
The MS instrument is set to positive polarity, 2 GHz resolution, and low mass (1700) mode and allowed to equilibrate for 30 minutes. The instrument is then calibrated, switched to acquisition mode and the appropriate method loaded.
After another 30 minute equilibration time, a blank batch (i.e., buffer) is run to ensure equipment is operating properly. The samples are thawed at 37° C. for 10 minutes, briefly centrifuged, and transfer to the bench top. Wells A1 and H12 are spiked with 1 μL 500 μM internal standard peptide, and the plates centrifuged at 2000×g for 5 minutes. The method is then run and masses of each individual well recorded.
The masses (for which integration data is desired) for each well are pasted into the platemap and exported from the analysis. Masses for the internal standards are exported as well. The data at 50 ppm is extracted for the +19 charge state, and identity of well A1 is assigned using the internal standard spike and integrated. Peak data is exported as a TOF list and the above steps are repeated individually, for the +20, 21, 22, 23, 24, and 25 charge states.
The masses and peak intensities of KRAS G12C protein species were measured using a Dionex RSLCnano system (Thermo Scientific) connected to a Q Exactive Plus mass spectrometer (Thermo Scientific).
[…] of sample was each loaded onto a Aeris™ 3.6 μm WIDEPORE C4 200 Å, LC Column 50×2.1 mm column maintained at 40° C. at a flow rate of 600 μl min^−1 with […] (0.1% formic acid in acetonitrile). The liquid chromatography conditions were 20% solvent B for 1 min, 20% to 60% solvent B for 1.5 min, 60% to 90% solvent for 0.5 min, 90% solvent B for 0.2 min, 90% to 20% solvent B for 0.2 min, and then equilibrated for 1.6 min before the following sample injection. The flow rate was maintained at 600 μl min^−1 throughout the sample analysis.
The mass spectrometer was operated in profile mode at a resolution of 17500, 5 microscans, using 50 msec max injection time and an AGC target of 1e6, and a full mass range from 800-1850 m/z was recorded. The HCD trapping gas was optimized for maximum sensitivity for intact proteins. The ionization method was electrospray ionization, which used a spray voltage of 4 kV, sheath gas flow set to 50 au, auxiliary gas flow set to 10 au and sweep gas flow set to 1 au. […]
Turning to `C=CC(=O)N1C[C@H](C)N(c2nc(N3CC(N(C)C)C3)nc3c(F)c(-c4c(O)cccc4F)c(Cl)cc23)C[C@H]1C` [Compound 24, 1-((2R,5S)-4-(6-chloro-2-(3-(dimethylamino)azetidin-1-yl)-8-fluoro-7-(2-fluoro-6-hydroxyphenyl)quinazolin-4-yl)-2,5-dimethylpiperazin-1-yl)prop-2-en-1-one], the Binding % result is listed as “++ (++ indicates binding activity from 50 to 90%)”. On the same count and under the same terms, the same measure for `C=CC(=O)N1C[C@H](C)N(c2nc(OCCN(CC)CC)nc3c(F)c(-c4c(O)cccc4F)c(Cl)cc23)C[C@H]1C` [Compound 48, 1-((2R,5S)-4-(6-chloro-2-(2-(diethylamino)ethoxy)-8-fluoro-7-(2-fluoro-6-hydroxyphenyl)quinazolin-4-yl)-2,5-dimethylpiperazin-1-yl)prop-2-en-1-one]: “++ (++ indicates binding activity from 50 to 90%)”; for `C=CC(=O)N1C[C@H](C)N(c2nc(N3CC(N(C)C)C3)nc3c(F)c(-c4c(C)ccc5[nH]ncc45)c(Cl)cc23)C[C@H]1C` [Compound 54, 1-((2R,5S)-4-(6-chloro-2-(3-(dimethylamino)azetidin-1-yl)-8-fluoro-7-(5-methyl-1H-indazol-4-yl)quinazolin-4-yl)-2,5-dimethylpiperazin-1-yl)prop-2-en-1-one]: “+++ (+++ indicates binding activity greater than 90%)”; for `C=CC(=O)N1C[C@@H](C)N(c2nc(N3CC(N(C)C)C3)nc3c(F)c(-c4c(O)cccc4F)c(Cl)cc23)C[C@H]1C` [Compound 80, 1-((2R,5R)-4-(6-chloro-2-(3-(dimethylamino)azetidin-1-yl)-8-fluoro-7-(2-fluoro-6-hydroxyphenyl)quinazolin-4-yl)-2,5-dimethylpiperazin-1-yl)prop-2-en-1-one]: “+ (+ indicates binding activity greater than 0% and up to 50%)”. The same measure, in the same setting: the same measure for `C=CC(=O)N1C[C@@H](C)N(c2nc(N3CC(N(C)C)C3)nc3c(F)c(-c4c(O)cccc4F)c(Cl)cc23)C[C@@H]1C` [Compound 81, 1-((2S,5R)-4-(6-chloro-2-(3-(dimethylamino)azetidin-1-yl)-8-fluoro-7-(2-fluoro-6-hydroxyphenyl)quinazolin-4-yl)-2,5-dimethylpiperazin-1-yl)prop-2-en-1-one]: “+ (+ indicates binding activity greater than 0% and up to 50%)”; for `C=CC(=O)N1CCN(c2nc(N3CC(N(C)C)C3)nc3c(F)c(-c4c(O)cccc4F)c(Cl)cc23)C[C@@H]1C` [Compound 82, 1-((2S)-4-(6-chloro-2-(3-(dimethylamino)azetidin-1-yl)-8-fluoro-7-(2-fluoro-6-hydroxyphenyl)quinazolin-4-yl)-2-methylpiperazin-1-yl)prop-2-en-1-one]: “++ (++ indicates binding activity from 50 to 90%)”.

Still in this assay, the particulars now being: covalent binding to KRAS G12C, % modification after a three minute incubation period.
For the compound `C=CC(=O)N1C[C@H](C)N(c2nc(OCCn3ccnc3C#N)nc3c(F)c(-c4c(O)cccc4F)c(Cl)cc23)C[C@H]1C` (atropisomer, axis not shown) [Compound 278, 1-(2-(4-((2S,5R)-4-acryloyl-2,5-dimethylpiperazin-1-yl)-6-chloro-8-fluoro-7-((S)-2-fluoro-6-hydroxyphenyl)quinazolin-2-yloxy)ethyl)-1H-imidazole-2-carbonitrile], the Binding % entry is “++ (++ indicates binding activity from 50 to 90%)”. For the compound `C=CC(=O)N1C[C@H](C)N(c2nc(OCCn3cnnc3)nc3c(F)c(-c4c(O)cccc4F)c(Cl)cc23)C[C@H]1C` (atropisomer, axis not shown) [Compound 280, 1-((2R,5S)-4-(2-(2-(4H-1,2,4-triazol-4-yl)ethoxy)-6-chloro-8-fluoro-7-((S)-2-fluoro-6-hydroxyphenyl)quinazolin-4-yl)-2,5-dimethylpiperazin-1-yl)prop-2-en-1-one], the Binding % result is given as “+++ (+++ indicates binding activity greater than 90%)”.

In the case of `C=CC(=O)N1C[C@H](C)N(c2nc(OCC(C)(C)C#N)nc3c(F)c(-c4c(O)cccc4F)c(Cl)cc23)C[C@H]1C` (atropisomer, axis not shown) [Compound 282, 3-((4-((2S,5R)-4-acryloyl-2,5-dimethylpiperazin-1-yl)-6-chloro-8-fluoro-7-((S)-2-fluoro-6-hydroxyphenyl)quinazolin-2-yl)oxy)-2,2-dimethylpropanenitrile], the Binding % entry is reported as “++ (++ indicates binding activity from 50 to 90%)”.

As for `C=CC(=O)N1C[C@H](C)N(c2nc(OCCc3cncn3C)nc3c(F)c(-c4c(O)cccc4F)c(Cl)cc23)C[C@H]1C` (atropisomer, axis not shown) [Compound 284, 1-((2R,5S)-4-(6-chloro-8-fluoro-7-((S)-2-fluoro-6-hydroxyphenyl)-2-(2-(1-methyl-1H-imidazol-5-yl)ethoxy)quinazolin-4-yl)-2,5-dimethylpiperazin-1-yl)prop-2-en-1-one], the Binding % result is reported as “+++ (+++ indicates binding activity greater than 90%)”. Consider `C=CC(=O)N1C[C@H](C)N(c2nc(OCCc3nccn3C)nc3c(F)c(-c4c(O)cccc4F)c(Cl)cc23)C[C@H]1C` (atropisomer, axis not shown) [Compound 288, 1-((2R,5S)-4-((S)-6-chloro-8-fluoro-7-(2-fluoro-6-hydroxyphenyl)-2-(2-(1-methyl-1H-imidazol-2-yl)ethoxy)quinazolin-4-yl)-2,5-dimethylpiperazin-1-yl)prop-2-en-1-one], for which the Binding % result was “+++ (+++ indicates binding activity greater than 90%)”. As to `C=CC(=O)N1C[C@H](C)N(c2nc(OCCc3ncc(C)n3C)nc3c(F)c(-c4c(O)cccc4F)c(Cl)cc23)C[C@H]1C` (atropisomer, axis not shown) [Compound 289, 1-((2R,5S)-4-((S)-6-chloro-2-(2-(1,5-dimethyl-1H-imidazol-2-yl)ethoxy)-8-fluoro-7-(2-fluoro-6-hydroxyphenyl)quinazolin-4-yl)-2,5-dimethylpiperazin-1-yl)prop-2-en-1-one], the Binding % entry is given as “+++ (+++ indicates binding activity greater than 90%)”. Still for that read-out and setting: the same measure for `C=CC(=O)N1C[C@@H](C)N(c2nc(N3CC(N(C)C)C3)nc3c(F)c(-c4c(O)cccc4F)c(Cl)cc23)C[C@H]1C` [Compound 86, 1-((2R,5R)-4-(6-chloro-2-(3-(dimethylamino)azetidin-1-yl)-8-fluoro-7-(2-fluoro-6-hydroxyphenyl)quinazolin-4-yl)-2,5-dimethylpiperazin-1-yl)prop-2-en-1-one]: “+ (+ indicates binding activity greater than 0% and up to 50%)”; for `C=CC(=O)N1C[C@@H](C)N(c2nc(N3CC(N(C)C)C3)nc3c(F)c(-c4c(O)cccc4F)c(Cl)cc23)C[C@@H]1C` [Compound 87, 1-((2S,5R)-4-(6-chloro-2-(3-(dimethylamino)azetidin-1-yl)-8-fluoro-7-(2-fluoro-6-hydroxyphenyl)quinazolin-4-yl)-2,5-dimethylpiperazin-1-yl)prop-2-en-1-one]: “+ (+ indicates binding activity greater than 0% and up to 50%)”; for `C=CC(=O)N1C[C@H](C)N(c2nc(OCCN3CC(F)(F)C3)nc3c(F)c(-c4c(O)cccc4F)c(Cl)cc23)C[C@H]1C` [Compound 89, 1-((2R,5S)-4-(6-chloro-2-(2-(3,3-difluoroazetidin-1-yl)ethoxy)-8-fluoro-7-((R)-2-fluoro-6-hydroxyphenyl)quinazolin-4-yl)-2,5-dimethylpiperazin-1-yl)prop-2-en-1-one]: “+ (+ indicates binding activity greater than 0% and up to 50%)”.
